# Results published in ChEMBL document CHEMBL1153765, “Bioactive 5,6-dihydro-alpha-pyrone derivatives from Hyptis brevipes” (2009).
# Calls of active or inactive are those of the source. No cut-off for these calls is given here.
# Experiments:
# Lu1 = test: Cytotoxicity against human Lu1 cells; type: functional, cell-based
# MCF7 = test: Cytotoxicity against human MCF7 cells; type: functional; conditions: read-out: ED50 (the source's name)
# [1] = target: T1, Nuclear factor NF-kappa-B p105 subunit (Homo sapiens) (UniProt P19838); test: Inhibition of NF kappaB p50 subunit signaling pathway in human HeLa cells by biotinylated-ELISA; type: cell-based
# T1 sequence (whole entry): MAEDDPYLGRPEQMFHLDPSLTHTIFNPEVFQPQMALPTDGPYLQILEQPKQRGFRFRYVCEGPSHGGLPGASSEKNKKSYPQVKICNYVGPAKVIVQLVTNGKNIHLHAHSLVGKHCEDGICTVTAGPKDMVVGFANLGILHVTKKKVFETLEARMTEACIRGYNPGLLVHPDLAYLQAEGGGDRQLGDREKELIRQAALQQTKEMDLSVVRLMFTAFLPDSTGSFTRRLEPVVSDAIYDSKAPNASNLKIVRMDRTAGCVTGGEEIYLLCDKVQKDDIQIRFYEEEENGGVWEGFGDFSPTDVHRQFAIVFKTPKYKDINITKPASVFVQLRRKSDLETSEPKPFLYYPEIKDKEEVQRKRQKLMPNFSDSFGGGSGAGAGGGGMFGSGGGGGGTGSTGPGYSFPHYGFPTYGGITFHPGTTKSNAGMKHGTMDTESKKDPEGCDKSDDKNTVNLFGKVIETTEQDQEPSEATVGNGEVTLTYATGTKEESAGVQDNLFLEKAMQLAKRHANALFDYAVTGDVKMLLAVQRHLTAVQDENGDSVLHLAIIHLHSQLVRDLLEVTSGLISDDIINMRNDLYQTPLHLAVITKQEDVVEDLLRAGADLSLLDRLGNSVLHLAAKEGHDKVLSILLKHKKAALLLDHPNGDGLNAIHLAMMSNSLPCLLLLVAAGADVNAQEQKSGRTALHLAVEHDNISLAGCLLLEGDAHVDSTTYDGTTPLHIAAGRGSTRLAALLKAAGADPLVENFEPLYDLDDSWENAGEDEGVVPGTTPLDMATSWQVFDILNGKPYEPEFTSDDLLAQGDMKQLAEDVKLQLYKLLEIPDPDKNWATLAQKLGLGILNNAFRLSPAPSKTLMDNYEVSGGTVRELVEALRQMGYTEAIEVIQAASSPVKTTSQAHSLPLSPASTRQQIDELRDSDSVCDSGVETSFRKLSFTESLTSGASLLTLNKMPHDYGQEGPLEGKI
# HT-29 [2] = test: Cytotoxicity against human HT-29 cells; type: functional; conditions: read-out: ED50 (the source's name)
# HL-60 = test: Inhibition of chymotrypsin-like activity of proteasome in human HL60 cells assessed as free AMC level after 10 mins; type: subcellular
# HT-29 [3] = test: Induction of apoptosis in human HT-29 cells assessed as change in mitochondrial transmembrane potential after 2 hrs by JC1 staining based fluorescence assay; type: functional; conditions: HT-29, 2 h, read-out: ED50 (the source's name)
Structure (SMILES),ED50 [1] [µM],ED50 (HL-60) [µM],EC50 (HT-29 [3]) [µM],Activity (Lu1),EC50 (MCF7) [µM],EC50 (HT-29 [2]) [µM]
CC(=O)O[C@@H]([C@H]1C[C@@H]1C(=O)C(C)OC(=O)/C=C/c1ccc(O)cc1)[C@H]1CC=CC(=O)O1 (stereo not given in full) [BREVIPOLIDE A],> 50,–,–,inactive,> 10,5.8
CC(OC(=O)/C=C/c1ccc(O)c(O)c1)C(=O)[C@H]1C[C@@H]1[C@H](O)[C@H]1CC=CC(=O)O1 (stereo not given in full) [BREVIPOLIDE C],> 50,38,–,inactive,> 10,–
COc1ccc(-c2oc3cc(OC)c(O)c(O)c3c(=O)c2OC)cc1O,> 50,17,–,inactive,–,–
CC(=O)O[C@@H]([C@H]1C[C@@H]1C(=O)C(C)OC(=O)/C=C\c1ccc(O)cc1)[C@H]1CC=CC(=O)O1 (stereo not given in full) [BREVIPOLIDE B],> 50,–,–,inactive,6.1,6.1
COc1ccc([C@@]23Oc4cc(OC)cc(OC)c4[C@]2(O)[C@H](O)[C@H](C(=O)N(C)C)[C@H]3c2ccccc2)cc1,2,–,–,–,–,–
CC(OC(=O)/C=C/c1ccc(O)cc1)C(=O)[C@H]1C[C@@H]1[C@H](O)[C@H]1CC=CC(=O)O1 (stereo not given in full),15.3,–,0.075,inactive,3.6,–

# The next lines start with results.
ED50 [1] [µM],ED50 (HL-60) [µM],EC50 (HT-29 [3]) [µM],Structure (SMILES),Activity (Lu1),EC50 (MCF7) [µM],EC50 (HT-29 [2]) [µM]
> 50,–,–,CC(OC(=O)/C=C\c1ccc(O)cc1)C(=O)[C@H]1C[C@@H]1[C@H](O)[C@H]1CC=CC(=O)O1 (stereo not given in full) [BREVIPOLIDE F],inactive,6.7,–
> 50,–,–,CC(=O)O[C@@H]([C@H]1C[C@@H]1C(=O)C(C)OC(=O)/C=C/c1ccc(O)c(O)c1)[C@H]1CC=CC(=O)O1 (stereo not given in full) [BREVIPOLIDE E],inactive,> 10,–
> 50,44.5,–,CC(OC(=O)/C=C\c1ccc(O)c(O)c1)C(=O)[C@H]1C[C@@H]1[C@H](O)[C@H]1CC=CC(=O)O1 (stereo not given in full) [BREVIPOLIDE D],inactive,> 10,–
